Assay results reported in the NIST ThermoML archive (doi:10.1016/j.fluid.2007.08.013).
Values joined by “and” are separate entries in the source; they are usually repeats but may differ in a detail not shown here. Equal entries are not always repeated. Numbers after ± are expanded uncertainties.

Test: activity coefficient (dimensionless); of the first substance listed, at infinite dilution; xn = mol fraction of the nth substance listed
Details: Liquid, x1 = 0

COCOC [dimethoxymethane] + O
Chromatography
Details	activity coefficient
273.35 K	10.8 ± 0.7
283.15 K	13.7 ± 0.9
293.15 K	15.6 ± 1.1
298.15 K	16.9 ± 1.2
303.15 K	18 ± 1.2
313.15 K	19.9 ± 1.4
323.15 K	22 ± 1.5
333.15 K	23.9 ± 1.6

COCCOC [1,2-dimethoxyethane] + O
Details	activity coefficient
318.15 K, Chromatography	7.25 ± 0.49
328.15 K, non steady state GLC	9.12 and 8.81
338.15 K, non steady state GLC	11.2 and 11.1
348.15 K, Rayleigh distillation	12.2 ± 0.7
372.5 K, circulation still	14.9 ± 0.9

C1CCOC1 [tetrahydrofuran] + O
Details	activity coefficient
273.35 K, classical headspace analysis	9.74 ± 0.58
278.15 K, classical headspace analysis	11.1 ± 0.7
288.15 K, Chromatography	14.3 ± 1
298.15 K, Chromatography	17.6 ± 1.2
308.15 K, Chromatography	20.6 ± 1.4
318.15 K, Chromatography	24 ± 1.6
328.15 K, non steady state GLC	26.8 and 28.1

CCOCC [diethyl ether] + O
Chromatography
Details	activity coefficient
273.35 K	33.9 ± 2.3
278.15 K	41.2 ± 2.8
283.15 K	49.4 ± 3.4
288.15 K	58.5 ± 4
293.15 K	68.6 ± 4.7
298.15 K	77.1 ± 5.3
303.15 K	88.8 ± 6.1
308.15 K	98.8 ± 6.8
318.15 K	121 ± 8.3
328.15 K	140 ± 9.6

C1COCCO1 [1,4-dioxane] + O
Details	activity coefficient
273.35 K, relative headspace analysis	3.53 ± 0.21
278.15 K, relative headspace analysis	4 ± 0.24
288.15 K, headspace analysis	5.17 ± 0.31
288.15 K, relative headspace analysis	4.75 ± 0.29
298.15 K, headspace analysis	5.88 ± 0.35
308.15 K, headspace analysis	6.7 ± 0.4
308.15 K, relative headspace analysis	6.15 ± 0.37
318.15 K, relative headspace analysis	6.82 ± 0.41
328.15 K, non steady state GLC	7.76 ± 0.47
338.15 K, Chromatography	8.22 ± 0.56
338.15 K, non steady state GLC	8.27 ± 0.5
348.15 K, rayleigh distillation	8.43 ± 0.51
372.5 K, circulation still	10.3 ± 0.6

C1CCOCC1 [tetrahydropyran] + O
activity coefficient
Details	273.35 K	283.15 K	288.15 K	298.15 K	308.15 K	318.15 K	328.15 K
Chromatography	–	–	58 ± 4	70.5 ± 4.8	83.4 ± 5.7	96.2 ± 6.6	108 ± 7.4
relative headspace analysis	39.6 ± 2.4	44.9 ± 2.7	–	–	–	–	–

C1COCO1 [1,3-dioxolane] + O
Details	activity coefficient
273.35 K, relative headspace analysis	8.13 ± 0.49
278.15 K, relative headspace analysis	8.48 ± 0.51
288.15 K, relative headspace analysis	9.12 ± 0.55
298.15 K, relative headspace analysis	9.71 ± 0.58
308.15 K, relative headspace analysis	10.2 ± 0.6
318.15 K, Chromatography	10.6 ± 0.7
328.15 K, Chromatography	10.9 ± 0.7
338.15 K, non steady state GLC	11 and 11.4
348.15 K, Rayleigh distillation	11.3 ± 0.7
372.55 K, circulation still	11.2 ± 0.7
